For this experiment, the target named is T1, EPHA4 (Homo sapiens, UniProt P54764).
T1 construct: purchased Thermo Fisher Scientific (Life Technologies) SelectScreen
As to the kind of experiment: SelectScreen Z'LYTE. The experiment is classed as biochemical. A digest of the protocol:
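NU5455 was profiled across the SelectScreen Broad panel of kinase activity and binding assays. Z'LYTE reactions such as CSF1R ran at apparent Km ATP, while the Adapta CAMK1 assay used ATP listed as 10. Values are given as percent.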

T1 sequence (P54764 20-986): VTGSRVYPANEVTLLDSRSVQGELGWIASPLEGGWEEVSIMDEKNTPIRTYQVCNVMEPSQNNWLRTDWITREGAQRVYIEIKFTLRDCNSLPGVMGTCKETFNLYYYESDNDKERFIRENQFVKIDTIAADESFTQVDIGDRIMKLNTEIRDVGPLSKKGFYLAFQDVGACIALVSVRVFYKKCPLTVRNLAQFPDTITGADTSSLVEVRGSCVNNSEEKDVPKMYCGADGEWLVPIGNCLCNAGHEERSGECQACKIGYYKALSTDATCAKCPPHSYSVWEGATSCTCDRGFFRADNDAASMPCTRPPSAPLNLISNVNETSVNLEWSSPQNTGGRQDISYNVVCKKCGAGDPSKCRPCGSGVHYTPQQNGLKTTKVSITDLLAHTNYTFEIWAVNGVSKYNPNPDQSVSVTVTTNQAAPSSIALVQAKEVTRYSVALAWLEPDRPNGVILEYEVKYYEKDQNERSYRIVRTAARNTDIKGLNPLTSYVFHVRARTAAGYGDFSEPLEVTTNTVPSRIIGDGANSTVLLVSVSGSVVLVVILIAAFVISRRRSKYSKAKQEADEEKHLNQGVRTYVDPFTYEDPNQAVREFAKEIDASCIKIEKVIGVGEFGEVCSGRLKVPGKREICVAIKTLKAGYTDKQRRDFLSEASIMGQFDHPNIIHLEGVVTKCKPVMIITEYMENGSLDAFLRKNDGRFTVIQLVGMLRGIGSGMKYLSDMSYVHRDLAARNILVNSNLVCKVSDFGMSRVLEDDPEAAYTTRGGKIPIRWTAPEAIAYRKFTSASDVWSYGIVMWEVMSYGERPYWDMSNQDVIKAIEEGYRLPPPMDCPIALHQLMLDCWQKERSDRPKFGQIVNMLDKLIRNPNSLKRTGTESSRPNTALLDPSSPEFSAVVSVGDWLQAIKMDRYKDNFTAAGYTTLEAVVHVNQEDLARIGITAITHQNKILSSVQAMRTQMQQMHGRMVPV

Compound `CN(C(=O)CN1CCOCC1)c1ccc2sc3c(-c4cccc5c(=O)cc(N6CC7CCC(C6)O7)oc45)cccc3c2c1` [NU5455] gave an inhibition at 1 µM of 2.9%.

As a reminder, the inhibition is the relative decrease from the control value, in per cent.

(Values after PMC6934184, “Selective DNA-PKcs inhibition extends the therapeutic index of localized radiotherapy and chemotherapy” (The Journal of Clinical Investigation, 2019).)
